Series [1] addresses T1, GABA-B receptor (Homo sapiens) (UniProt Q9UBS5+O75899). The series is described as follows: Inhibition of human GABAB R1/R2 receptor expressed in HEK293 cells co-expressing human Cav2.2 alpha1B/alpha2delta1/beta3 channel assessed as inhibition of depolarization-activated Ba2+ current at 1 uM by whole cell patch clamp technique relative to control. The class given is cell-based. (Patch clamp records ionic current or voltage across a cell membrane.)

In series [2] the target is Nicotinic acetylcholine receptor alpha9/alpha10 (Rattus norvegicus, UniProt P43144+Q9JLB5). The series is described as follows: (§1) Inhibition of rat alpha9alpha10 nAChR expressed in Xenopus oocytes assessed as inhibition of Ach-evoked current after 5 mins by voltage-clamp technique. The class given is cell-based.
The target in series [3] is T2, Nicotinic acetylcholine receptor alpha9/alpha10 (Rattus norvegicus) (UniProt P43144+Q9JLB5). The series can be described thus: Inhibition of rat alpha9alpha10 nAChR expressed in Xenopus oocytes assessed as inhibition of Ach-evoked current at 3 uM after 5 mins by voltage-clamp technique. The class given is cell-based.
The target of series [4] is T3, Neuronal acetylcholine receptor subunit alpha-7 (Homo sapiens, UniProt P36544). The series is described as follows: Inhibition of human alpha7 nAChR expressed in Xenopus oocytes assessed as inhibition of Ach-evoked current after 5 mins by voltage-clamp technique. The class given is cell-based.
In series [5] the target is Voltage-dependent N-type calcium channel subunit alpha-1B (Rattus norvegicus) (UniProt Q02294). The series can be described thus: Inhibition of N-type Ca channel in Wistar rat DRG neuron at 1 nM by whole cell patch clamp technique relative to control.
For series [6], the target named is T2, Nicotinic acetylcholine receptor alpha9/alpha10 (Rattus norvegicus). The series can be described thus: Inhibition of rat alpha9alpha10 nAChR expressed in Xenopus oocytes assessed as inhibition of Ach-evoked current at 30 uM after 5 mins by voltage-clamp technique. The class given is cell-based.
The target of series [7] is Voltage-dependent N-type calcium channel subunit alpha-1B (Rattus norvegicus) (UniProt Q02294). The series can be described thus: Inhibition of N-type Ca channel in Wistar rat DRG neuron at 100 nM by whole cell patch clamp technique relative to control.
Series [8] addresses T3, Neuronal acetylcholine receptor subunit alpha-7. The series can be described thus: Inhibition of human alpha7 nAChR expressed in Xenopus oocytes assessed as inhibition of Ach-evoked current at 3 uM after 5 mins by voltage-clamp technique. The class given is cell-based.
Series [9] in a line: Metabolic stability in human serum assessed as compound remaining at 3 mM after 1 hr by RP-HPLC analysis. The class given is ADME, cell-free. The settings on record: read-out: Stability.
Series [10] addresses T4, Voltage-dependent N-type calcium channel subunit alpha-1B/Voltage-dependent calcium channel subunit alpha-2/delta-1/Voltage-dependent L-type calcium channel subunit beta-3 (Homo sapiens) (UniProt P54289+Q00975+P54284). The series is described as follows: Inhibition of human GABAB R1/R2 receptor expressed in HEK293 cells co-expressing human Cav2.2 alpha1B/alpha2delta1/beta3 channel assessed as inhibition of depolarization-activated Ba2+ current at 50 uM followed by compound washout by whole cell patch clamp technique relative to control. The class given is cell-based.

In series [11] the target is T1, GABA-B receptor (Homo sapiens). The series can be described thus: Inhibition of human GABAB R1/R2 receptor expressed in HEK293 cells co-expressing human Cav2.2 alpha1B/alpha2delta1/beta3 channel assessed as inhibition of depolarization-activated Ba2+ current depolarization-activated Ba2+ current at 50 uM by whole cell patch clamp technique relative to control. The class given is cell-based.

Series [12] has the same target. The series is described as follows: Inhibition of human GABAB R1/R2 receptor expressed in HEK293 cells co-expressing human Cav2.2 alpha1B/alpha2delta1/beta3 channel assessed as inhibition of depolarization-activated Ba2+ current by whole cell patch clamp technique relative to control. The class given is cell-based.
Series [13] deals with T4, Voltage-dependent N-type calcium channel subunit alpha-1B/Voltage-dependent calcium channel subunit alpha-2/delta-1/Voltage-dependent L-type calcium channel subunit beta-3 (Homo sapiens). The series is described as follows: Inhibition of human Cav2.2 alpha1B/alpha2delta1/beta3 channel expressed in HEK293 cells assessed as inhibition of depolarization-activated Ba2+ current at 1 uM by whole cell patch clamp technique relative to control. The class given is cell-based.

A short description of series [14]: Metabolic stability in human serum assessed as compound remaining at 3 mM after 24 hrs by RP-HPLC analysis. The class given is ADME, cell-free. The settings on record: read-out: Stability.
The target in series [15] is T1, GABA-B receptor (Homo sapiens). The series is described as follows: Inhibition of human GABAB R1/R2 receptor expressed in HEK293 cells co-expressing human Cav2.2 alpha1B/alpha2delta1/beta3 channel assessed as inhibition of depolarization-activated Ba2+ current at 1 uM followed by compound washout by whole cell patch clamp technique relative to control. The class given is cell-based.

The target in series [16] is T2, Nicotinic acetylcholine receptor alpha9/alpha10 (Rattus norvegicus). The series is described as §1. The class given is cell-based.
Series [17] addresses T1, GABA-B receptor (Homo sapiens). The series can be described thus: Inhibition of human GABAB R1/R2 receptor expressed in HEK293 cells co-expressing human Cav2.2 alpha1B/alpha2delta1/beta3 channel assessed as inhibition of depolarization-activated Ba2+ current at 200 nM by whole cell patch clamp technique relative to control. The class given is cell-based.

Consider five compounds from ChEMBL document CHEMBL3352353, “Dicarba analogues of α-conotoxin RgIA. Structure, stability, and activity at potential pain targets” (J Med Chem, 2014).

Calls of active or inactive are those of the source. The calls are words filed in the database; no cut-off is given here. Positions of bridges follow the written chain, without caps; N, C: chain ends. Non-standard residues stand in square brackets, D forms with d. Residues, ends and D or L forms follow the SMILES beside them. AllylGly = C=CC[C@H](N)C(=O)O

Sequence of Voltage-dependent N-type calcium channel subunit alpha-1B (Rattus norvegicus) (Q02294 whole entry, looked up): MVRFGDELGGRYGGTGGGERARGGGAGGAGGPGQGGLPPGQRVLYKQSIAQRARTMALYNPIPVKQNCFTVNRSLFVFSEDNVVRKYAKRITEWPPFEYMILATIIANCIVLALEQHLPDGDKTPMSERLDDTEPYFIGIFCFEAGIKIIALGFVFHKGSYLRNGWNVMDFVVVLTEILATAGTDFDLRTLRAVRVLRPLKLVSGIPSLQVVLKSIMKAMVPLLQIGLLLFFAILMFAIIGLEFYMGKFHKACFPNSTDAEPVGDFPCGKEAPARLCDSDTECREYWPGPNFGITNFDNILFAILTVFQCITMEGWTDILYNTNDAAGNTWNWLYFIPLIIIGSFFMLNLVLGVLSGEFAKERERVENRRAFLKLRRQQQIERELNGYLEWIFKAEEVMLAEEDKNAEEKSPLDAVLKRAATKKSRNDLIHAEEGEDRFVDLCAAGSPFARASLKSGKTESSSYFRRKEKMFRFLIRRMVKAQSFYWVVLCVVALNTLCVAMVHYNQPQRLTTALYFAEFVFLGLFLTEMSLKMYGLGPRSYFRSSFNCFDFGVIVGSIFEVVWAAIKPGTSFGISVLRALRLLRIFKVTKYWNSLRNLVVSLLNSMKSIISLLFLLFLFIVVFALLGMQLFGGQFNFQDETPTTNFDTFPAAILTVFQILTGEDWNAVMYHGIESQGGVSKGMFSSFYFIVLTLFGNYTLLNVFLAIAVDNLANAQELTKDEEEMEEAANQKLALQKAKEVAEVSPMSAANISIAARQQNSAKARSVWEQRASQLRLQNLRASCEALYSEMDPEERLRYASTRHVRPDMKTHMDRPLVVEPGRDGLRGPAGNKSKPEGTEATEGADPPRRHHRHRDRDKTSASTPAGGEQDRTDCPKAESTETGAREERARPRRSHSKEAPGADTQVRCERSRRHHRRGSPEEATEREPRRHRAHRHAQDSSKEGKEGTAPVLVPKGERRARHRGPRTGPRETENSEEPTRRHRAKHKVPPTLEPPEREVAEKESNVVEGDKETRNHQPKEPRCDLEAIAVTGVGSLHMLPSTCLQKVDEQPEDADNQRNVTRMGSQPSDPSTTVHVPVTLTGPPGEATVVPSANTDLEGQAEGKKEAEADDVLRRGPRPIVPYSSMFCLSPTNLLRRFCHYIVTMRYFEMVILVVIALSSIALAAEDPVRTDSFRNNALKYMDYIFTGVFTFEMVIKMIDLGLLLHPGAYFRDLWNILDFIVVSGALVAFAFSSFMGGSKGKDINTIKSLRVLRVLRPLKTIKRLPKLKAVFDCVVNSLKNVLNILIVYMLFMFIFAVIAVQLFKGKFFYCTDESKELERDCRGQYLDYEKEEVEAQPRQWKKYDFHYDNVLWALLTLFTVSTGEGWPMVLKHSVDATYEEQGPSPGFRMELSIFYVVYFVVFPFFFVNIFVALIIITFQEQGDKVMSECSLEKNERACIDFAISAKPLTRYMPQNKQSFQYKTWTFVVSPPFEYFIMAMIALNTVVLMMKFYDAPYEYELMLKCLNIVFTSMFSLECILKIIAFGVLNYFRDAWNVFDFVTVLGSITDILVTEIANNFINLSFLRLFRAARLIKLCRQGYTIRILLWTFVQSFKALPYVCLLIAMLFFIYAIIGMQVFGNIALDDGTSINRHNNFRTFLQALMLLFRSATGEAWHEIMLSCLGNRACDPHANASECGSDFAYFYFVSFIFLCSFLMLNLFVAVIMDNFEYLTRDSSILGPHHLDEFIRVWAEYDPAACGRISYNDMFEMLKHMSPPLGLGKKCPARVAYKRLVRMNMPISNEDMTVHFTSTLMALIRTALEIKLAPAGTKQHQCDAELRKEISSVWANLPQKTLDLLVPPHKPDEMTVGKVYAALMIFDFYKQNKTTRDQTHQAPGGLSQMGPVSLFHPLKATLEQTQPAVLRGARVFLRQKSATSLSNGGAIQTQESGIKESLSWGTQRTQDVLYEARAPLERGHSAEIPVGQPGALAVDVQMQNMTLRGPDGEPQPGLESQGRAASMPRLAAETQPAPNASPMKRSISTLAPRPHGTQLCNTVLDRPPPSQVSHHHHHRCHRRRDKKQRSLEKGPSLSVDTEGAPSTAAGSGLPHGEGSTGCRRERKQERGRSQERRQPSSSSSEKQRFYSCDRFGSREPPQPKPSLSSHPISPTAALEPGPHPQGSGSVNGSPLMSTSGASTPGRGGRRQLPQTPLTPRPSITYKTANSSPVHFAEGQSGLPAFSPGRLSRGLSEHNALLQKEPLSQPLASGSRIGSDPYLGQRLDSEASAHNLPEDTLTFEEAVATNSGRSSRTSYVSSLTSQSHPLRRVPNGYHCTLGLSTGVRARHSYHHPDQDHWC
T3 sequence (P36544 whole entry): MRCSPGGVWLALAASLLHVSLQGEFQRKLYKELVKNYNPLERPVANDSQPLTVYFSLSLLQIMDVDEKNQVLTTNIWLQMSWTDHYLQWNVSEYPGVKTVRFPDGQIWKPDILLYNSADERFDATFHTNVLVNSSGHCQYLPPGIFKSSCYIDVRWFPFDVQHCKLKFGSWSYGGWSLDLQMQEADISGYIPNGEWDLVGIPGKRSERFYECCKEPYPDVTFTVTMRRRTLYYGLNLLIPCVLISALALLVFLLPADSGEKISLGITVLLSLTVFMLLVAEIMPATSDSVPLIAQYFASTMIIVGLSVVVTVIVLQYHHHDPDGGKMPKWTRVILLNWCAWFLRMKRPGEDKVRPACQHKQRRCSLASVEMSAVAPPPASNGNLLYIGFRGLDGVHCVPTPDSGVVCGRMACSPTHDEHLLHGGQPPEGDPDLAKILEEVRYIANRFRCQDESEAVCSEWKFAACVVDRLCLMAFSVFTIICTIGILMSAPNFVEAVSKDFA
Sequence of Nicotinic acetylcholine receptor alpha9/alpha10 (P43144 whole entry): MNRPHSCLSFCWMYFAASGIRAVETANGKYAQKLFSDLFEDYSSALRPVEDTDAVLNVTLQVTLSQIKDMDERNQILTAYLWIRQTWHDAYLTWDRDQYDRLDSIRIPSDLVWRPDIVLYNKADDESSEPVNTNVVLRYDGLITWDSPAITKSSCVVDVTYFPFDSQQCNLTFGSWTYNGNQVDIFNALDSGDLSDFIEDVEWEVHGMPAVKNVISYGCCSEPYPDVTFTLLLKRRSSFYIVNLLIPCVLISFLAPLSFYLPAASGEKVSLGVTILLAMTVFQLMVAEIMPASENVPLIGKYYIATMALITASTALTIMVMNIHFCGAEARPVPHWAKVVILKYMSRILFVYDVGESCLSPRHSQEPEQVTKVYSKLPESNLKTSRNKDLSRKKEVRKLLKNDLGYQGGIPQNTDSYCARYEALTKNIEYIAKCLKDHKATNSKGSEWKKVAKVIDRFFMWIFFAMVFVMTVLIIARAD
Sequence of Nicotinic acetylcholine receptor alpha9/alpha10 (Q9JLB5 whole entry): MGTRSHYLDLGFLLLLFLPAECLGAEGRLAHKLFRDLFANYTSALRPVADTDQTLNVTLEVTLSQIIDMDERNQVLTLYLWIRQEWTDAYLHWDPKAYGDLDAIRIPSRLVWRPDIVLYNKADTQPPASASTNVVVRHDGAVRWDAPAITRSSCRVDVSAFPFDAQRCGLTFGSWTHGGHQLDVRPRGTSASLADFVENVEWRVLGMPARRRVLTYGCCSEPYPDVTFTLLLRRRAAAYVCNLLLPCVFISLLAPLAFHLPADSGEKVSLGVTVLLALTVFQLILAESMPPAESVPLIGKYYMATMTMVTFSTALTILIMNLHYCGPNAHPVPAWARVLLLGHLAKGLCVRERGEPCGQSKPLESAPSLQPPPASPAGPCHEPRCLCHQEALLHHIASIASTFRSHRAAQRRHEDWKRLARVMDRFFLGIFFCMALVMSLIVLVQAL

One may read the inhibition as the percentage by which the read-out fell short of the control. As a reminder, the IC50 is the concentration that gives 50% inhibition. Turning to `N=C(N)NCCC[C@H](NC(=O)[C@@H]1C/C=C/C[C@@H]2NC(=O)[C@@H](NC(=O)CN)CSSC[C@H](NC(=O)[C@H](CCCNC(=N)N)NC(=O)[C@@H]3CCCN3C(=O)[C@H](CC(=O)O)NC(=O)[C@H](CO)NC2=O)C(=O)N[C@@H](CCCNC(=N)N)C(=O)N[C@@H](Cc2ccc(O)cc2)C(=O)N[C@@H](CCCNC(=N)N)C(=O)N1)C(=O)O` (H-GC[AllylGly]SDPRCRYR[AllylGly]R-OH; disulfide 2-8; staple (E) 3-12), the inhibition result in series [1] and in series [5] was “inactive” throughout. Moreover, the IC50 is 1150 nM in series [2] and 3950 nM in [4]. The inhibition in [3] came out at 35.4%.
For the compound `N=C(N)NCCC[C@H](NC(=O)[C@@H]1CSSC[C@@H]2NC(=O)[C@@H](NC(=O)CN)C/C=C/C[C@H](NC(=O)[C@H](CCCNC(=N)N)NC(=O)[C@@H]3CCCN3C(=O)[C@H](CC(=O)O)NC(=O)[C@H](CO)NC2=O)C(=O)N[C@@H](CCCNC(=N)N)C(=O)N[C@@H](Cc2ccc(O)cc2)C(=O)N[C@@H](CCCNC(=N)N)C(=O)N1)C(=O)O`, the inhibition result in [6] was “inactive”. Further, in series [7], the inhibition entry was “Active”.
Take `N=C(N)NCCC[C@H](NC(=O)[C@@H]1C/C=C\C[C@@H]2NC(=O)[C@@H](NC(=O)CN)CSSC[C@H](NC(=O)[C@H](CCCNC(=N)N)NC(=O)[C@@H]3CCCN3C(=O)[C@H](CC(=O)O)NC(=O)[C@H](CO)NC2=O)C(=O)N[C@@H](CCCNC(=N)N)C(=O)N[C@@H](Cc2ccc(O)cc2)C(=O)N[C@@H](CCCNC(=N)N)C(=O)N1)C(=O)O` (H-GC[AllylGly]SDPRCRYR[AllylGly]R-OH; disulfide 2-8; staple (Z) 3-12): the IC50 in series [2] came out at 1470 nM. Moreover, the inhibition in series [3] was 31.5%. Also, the inhibition result in [8] and in series [5] was “inactive” throughout.
For the compound `N=C(N)NCCC[C@H](NC(=O)[C@@H]1CSSC[C@@H]2NC(=O)[C@@H](NC(=O)CN)C/C=C\C[C@H](NC(=O)[C@H](CCCNC(=N)N)NC(=O)[C@@H]3CCCN3C(=O)[C@H](CC(=O)O)NC(=O)[C@H](CO)NC2=O)C(=O)N[C@@H](CCCNC(=N)N)C(=O)N[C@@H](Cc2ccc(O)cc2)C(=O)N[C@@H](CCCNC(=N)N)C(=O)N1)C(=O)O`, in series [9], the remaining at 1 h, 3000 µM worked out at 30%. Besides, the inhibition result in series [10], in [13] and in series [6] was “inactive” each time. The inhibition result in [11], in [15] and in series [7] was “Active” each time. Moreover, the inhibition in [1] is 35%; in series [12], “Dose-dependent effect”. In series [14], the remaining at 24 h, 3000 µM is 2%.
With `N=C(N)NCCC[C@H](NC(=O)[C@@H]1CSSC[C@@H]2NC(=O)[C@@H](NC(=O)CN)CSSC[C@H](NC(=O)[C@H](CCCNC(=N)N)NC(=O)[C@@H]3CCCN3C(=O)[C@H](CC(=O)O)NC(=O)[C@H](CO)NC2=O)C(=O)N[C@@H](CCCNC(=N)N)C(=O)N[C@@H](Cc2ccc(O)cc2)C(=O)N[C@@H](CCCNC(=N)N)C(=O)N1)C(=O)O`, the inhibition result in [16] was “Dose-dependent effect”; in series [4], “Dose-dependent effect”; in series [17], 20%; in [7], 60.6%. Besides, in [4], the IC50 came to 3300 nM.
